The values that follow come from patent publication US20080113946A1, “N-aryl-5,7-dihydrofuro[3,4-d]pyrimidin-4-amines and analogs as activators of caspases and inducers of apoptosis and the use thereof” (Cyntovia, Inc., priority 2006, published 2008).

pEC50: −log10 of the molar value. Where only a bound is given, the exact number is not on record here.

What all share (assay type): cell-based
For assay [1], the system named is Human breast cancer cell line T-47D. Description: Caspase cascade activation (Ac-DEVD-R110 fluorogenic substrate) in T-47D cells. Particulars: T47D, T-47D, incubated 24 or 48 h (Table I), 0.016 to 10 μM final, read-out: Caspase Activation Potency EC50 T-47D. As to the method:
(§1) Human breast cancer cell line T-47D, human hepatocellular carcinoma cell line SNU398 and human colon carcinoma cell line HCT116 were grown according to media component mixtures designated by American Type Culture Collection+10% FCS (Invitrogen Corporation), in a 5% CO2-95% humidity incubator at 37° C. T-47D and H1299 cells were maintained at a cell density between 50 and 80% confluency at a cell density of 0.1 to 0.6×10^6 cells/mL. Cells were harvested at 600×g and resuspended at 0.65×10^6 cells/mL into appropriate media+10% FCS. An aliquot of 22.5 μL of cells was added to a well of a 384-well microtiter plate containing 2.5 μL of a 10% DMSO in RPMI-1640 media solution containing 0.16 to 100 μM of 5,7-dihydro-N-(3,5-dimethoxyphenyl)-2-(methylthio)furo[3,4-d]pyrimidin-4-amine or other test compound (0.016 to 10 μM final). An aliquot of 22.5 μL of cells was added to a well of a 384-well microtiter plate containing 2.5 μL of a 10% DMSO in RPMI-1640 media solution without test compound as the control sample. The samples were mixed by agitation and then incubated at 37° C. for 24 or 48 h in a 5% CO2-95% humidity incubator. After incubation, the samples were removed from the incubator and 25 μL of a solution containing 14 μM of N-(Ac-DEVD)-N′-ethoxycarbonyl-R110 (SEQ ID No.:1) fluorogenic substrate (Cytovia, Inc.; WO99/18856), 20% sucrose (Sigma), 20 mM DTT (Sigma), 200 mM NaCl (Sigma), 40 mM Na PIPES buffer pH 7.2 (Sigma), and 500 µg/mL lysolecithin (Calbiochem) was added. The samples were mixed by agitation and incubated at room temperature. Using a fluorescent plate reader (Model SPECTRAfluor Plus, Tecan), an initial reading (T=0) was made approximately 1-2 min after addition of the substrate solution, employing excitation at 485 nm and emission at 530 nm, to determine the background fluorescence of the control sample. After the 3 h incubation, the samples were read for fluorescence as above (T=3 h).
(§2) The Relative Fluorescence Unit values (RFU) were used to calculate the sample readings as follows: RFU(T=3h)−Control RFU(T=0)=Net RFU(T=3h)
(§3) The activity of caspase cascade activation was determined by the ratio of the net RFU value for 5,7-dihydro-N-(3,5-dimethoxyphenyl)-2-(methylthio)furo[3,4-d]pyrimidin-4-amino or other test compound to that of control samples. The EC50 (nM) was determined by a sigmoidal dose-response calculation (Prism 3.0, GraphPad Software Inc.).

Assay [2] deals with human colon carcinoma cell line HCT116. Description: Caspase cascade activation (Ac-DEVD-R110 fluorogenic substrate) in HCT116 cells. Particulars: HCT-116, incubated 24 or 48 h (Table I), 0.016 to 10 μM final, read-out: Caspase Activation Potency EC50 HCT116. As to the method:
as §1, §2, §3

Assay [3] concerns human hepatocellular carcinoma cell line SNU398. Briefly: Caspase cascade activation (Ac-DEVD-R110 fluorogenic substrate) in SNU398 cells. Particulars: SNU-398, incubated 24 or 48 h (Table I), 0.016 to 10 μM final, read-out: Caspase Activation Potency EC50 SNU398. Here is the method: as §1, §2, §3

As to `COc1ccc(N(C)c2nc(SC)nc3c2COC3)cc1` [Example 8, 5,7-Dihydro-N-(4-methoxyphenyl)-N-methyl-2-(methylthio)furo[3,4-d]pyrimidin-4-amine], the negative logarithm of the EC50 (pEC50) in assay [1] is 5.50; in assay [2], 5.29; in assay [3], 5.59.
Regarding `COc1cc(Nc2ncnc3c2COC3)cc(OC)c1` [Example 9, 5,7-Dihydro-N-(3,5-dimethoxyphenyl)-furo[3,4-d]pyrimidin-4-amine], the pEC50 was 5.93 in assay [1], < 5.00 in assay [2] and < 5.00 in assay [3].
Consider `Cc1nc2c(c(Nc3cccc(Br)c3)n1)COC2` [Example 10, 5,7-Dihydro-N-(3-bromophenyl)-2-methylfuro[3,4-d]pyrimidin-4-amine], for which the pEC50 in assay [1], in assay [2] and in assay [3] was < 5.00 throughout.
Regarding `COc1cc(Nc2nc(C)nc3c2COC3)cc(OC)c1` [Example 11, 5,7-Dihydro-N-(3,5-dimethoxyphenyl)-2-methylfuro[3,4-d]pyrimidin-4-amine], the figures for the pEC50 in assay [1], in assay [2] and in assay [3] were 5.89, < 5.00 and < 5.00, respectively.
Regarding `CSc1nc2c(c(Nc3cc(C)n[nH]3)n1)COC2` [Example 12, 5,7-Dihydro-N-(3-methyl-1H-pyrazol-5-yl)-2-(methylthio)furo[3,4-d]pyrimidin-4-amine], the negative-log EC50 (pEC50) in assay [1], in assay [2] and in assay [3] was < 5.00 throughout.
For the molecule `Cc1cc(Nc2nc(S(C)(=O)=O)nc3c2COC3)[nH]n1` [Example 13, 5,7-Dihydro-N-(3-methyl-1H-pyrazol-5-yl)-2-(methylsulfonyl)furo[3,4-d]pyrimidin-4-amine], the negative-log EC50 (pEC50) in assay [1], in assay [2] and in assay [3] was < 5.00 throughout.
Regarding `Cc1cc(Nc2nc(Sc3ccc(NC(=O)C4CC4)cc3)nc3c2COC3)[nH]n1` [Example 14, N-(4-(4-(3-Methyl-1H-pyrazol-5-ylamino)-5,7-dihydrofuro[3,4-d]pyrimidin-2-ylthio)phenyl)cyclopropanecarboxamide], the negative-log EC50 (pEC50) in assay [1] is 5.56; in assay [2], 5.62; in assay [3], 5.87.
For the molecule `CS(=O)(=O)c1nc2c(c(Sc3ccc(NC(=O)C4CC4)cc3)n1)COC2` [Example 15, N-(4-(5,7-Dihydro-2-(methylsulfonyl)furo[3,4-d]pyrimidin-4-ylthio)phenyl)cyclopropanecarboxamide], the pEC50 in assay [1] is 4.85; in assay [2], ≤ 4.85; in assay [3] it was 5.04.
Take `Cc1cc(Nc2nc3c(c(Sc4ccc(NC(=O)C5CC5)cc4)n2)COC3)[nH]n1` [Example 16, N-(4-(2-(3-Methyl-1H-pyrazol-5-ylamino)-5,7-dihydrofuro[3,4-d]pyrimidin-4-ylthio)phenyl)cyclopropanecarboxamide]: the pEC50 in assay [1], in assay [2] and in assay [3] was < 5.00 in each case.
For `Cc1cc(Nc2nc(Cl)nc3c2CN(C(=O)OCC2c4ccccc4-c4ccccc42)C3)[nH]n1` [Example 17, (9H-Fluoren-9-yl)methyl 4-(3-methyl-1H-pyrazol-5-ylamino)-2-chloro-5H-pyrrolo[3,4-d]pyrimidine-6(7H)-carboxylate], the pEC50 in assay [1], in assay [2] and in assay [3] was < 5.00 throughout.
On to `CSc1nc2c(c(Nc3cccc(Br)c3)n1)CCC2` [Example 19, N-(3-Bromophenyl)-6,7-dihydro-2-(methylthio)-5H-cyclopenta[d]pyrimidin-4-amine], for which the pEC50 in assay [1], in assay [2] and in assay [3] was < 5.00 throughout.
For `CSc1nc2c(c(Nc3cc(C)n[nH]3)n1)CCC2` [Example 20, 6,7-Dihydro-N-(5-methyl-1H-pyrazol-3-yl)-2-(methylthio)-5H-cyclopenta[d]pyrimidin-4-amine], the pEC50 is < 5.00 in assay [1], ≤ 4.97 in assay [2] and 5.57 in assay [3].
In the case of `COc1cc(Nc2nc(SC)nc3c2CCC3)cc(OC)c1` [Example 21, 6,7-Dihydro-N-(3,5-dimethoxyphenyl)-2-(methylthio)-5H-cyclopenta[d]pyrimidin-4-amine], the pEC50 in assay [1] is 7.20; in assay [2], < 5.00; in assay [3], 5.59.
Turning to `CSc1nc2c(c(Nc3ccc(NC(=O)c4ccccc4)cc3)n1)CCC2` [Example 22, N-(4-(6,7-Dihydro-2-(methylthio)-5H-cyclopenta[d]pyrimidin-4-ylamino)phenyl)benzamide], the pEC50 in assay [1], in assay [2] and in assay [3] was < 5.00 in each case.
For the molecule `O=C(Nc1ccc(Nc2ncnc3c2CCC3)cc1)c1ccccc1` [Example 26, N-(4-(6,7-Dihydro-5H-cyclopenta[d]pyrimidin-4-ylamino)phenyl)benzamide], the negative logarithm of the EC50 (pEC50) in assay [1], in assay [2] and in assay [3] was < 5.00 in each case.
In the case of `Cc1cc(Nc2nc(N3CCN(C)CC3)nc3c2CNC3)[nH]n1` [Example 28, [2-(4-Methyl-piperazin-1-yl)-6,7-dihydro-5H-pyrrolo[3,4-d]pyrimidin-4-yl]-(5-methyl-2H-pyrazol-3-yl)-amine], the pEC50 in assay [1], in assay [2] and in assay [3] was < 5.00 in each case.
With `O=C(Nc1ccc(Sc2nc(Cl)nc3c2CN(C(=O)OCC2c4ccccc4-c4ccccc42)C3)cc1)C1CC1` [Example 29, (9H-Fluoren-9-yl)methyl 2-chloro-4-((4-(cyclopropanecarboxamido)phenyl)sulfanyl)-5H-pyrrolo[3,4-d]pyrimidine-6(7H)-carboxylate], the pEC50 in assay [1], in assay [2] and in assay [3] was < 5.00 each time.
On to `COc1cc(Nc2nc(Cl)nc3c2CN(C(=O)OCC2c4ccccc4-c4ccccc42)C3)cc(N(C)C)c1` [Example 30, (9H-Fluoren-9-yl)methyl 4-(3-(dimethylamino)-5-methoxyphenylamino)-2-chloro-5H-pyrrolo[3,4-d]pyrimidine-6(7H)-carboxylate], for which the pEC50 in assay [1] was 5.80; in assay [2], < 5.00; in assay [3] it was < 5.00.
`COc1ccc(N(C)c2nc(Cl)nc3c2CN(C(=O)OCC2c4ccccc4-c4ccccc42)C3)cc1` [Example 31, (9H-Fluoren-9-yl)methyl 4-(N-(4-methoxyphenyl)-N-methylamino)-2-chloro-5H-pyrrolo[3,4-d]pyrimidine-6(7H)-carboxylate]: the pEC50 was < 5.00 in assay [1], < 5.00 in assay [2] and 5.30 in assay [3].
For the molecule `Cc1cc(Nc2nc(N3CCN(C)CC3)nc3c2COC3)[nH]n1` [Example 32, 5,7-Dihydro-N-(3-methyl-1H-pyrazol-5-yl)-2-(4-methylpiperazin-1-yl)furo[3,4-d]pyrimidin-4-amine], the pEC50 in assay [1], in assay [2] and in assay [3] was < 5.00 each time.

For orientation: pEC50 means the EC50 on a negative log10 scale, so that one unit is a factor of ten.
